The text below walks through data of US8236809B2, “Substituted 1,2,3-triazolopyrimidines for the inhibition of NAD(P)H oxidases and platelet activation” (Vasopharm GmbH, priority 2004, dated 2012).

Experiment [1] concerns the target NAD(P)H oxidases (NOX) in HL-60 cells (Homo sapiens, UniProt P04839). The experiment is described as follows: Assay of NOX activity: cytochrome C reduction in PMA-stimulated differentiated HL-60 cells. Type of experiment: cell-based. Particulars: HL-60; DPI final conc. 10 μM, control inhibitor; 'usually'; read-out: Residual activity of DPI-treated cells (NOX activity as % of the activity in PMA-stimulated control cells).
Method: (§1) Measurement of cytochrome C-reduction was used to assess the NOX-activity in HL-60 cells.
(§2) The human acute myeloid leukemia cell line HL-60 (ECACC 98070106) was cultured in RPMI 1640 (Biochrom, Berlin, Germany) supplemented with 5% heat-inactivated calf serum, 2 mM glutamine (GLUTAMAX, Invitrogen, Karlsruhe, Germany), 100 U/ml penicillin (Sigma, Taufkirchen, Germany), and 100 μg/ml streptomycin (Sigma, Taufkirchen, Germany) at 37° C. under a humidified atmosphere of 5% CO2. Cells were maintained at 0.1−2.0×10^6 cells/ml. To induce myeloid differentiation, the cells were seeded to a density of 0.5×10^6 cells/ml and cultivated for 6 days in medium containing 1.25% (v/v) dimethylsulfoxide (DMSO). […]
(§3) E550 and E540 were measured once before stimulation of the cells on a micro-plate reader (Multiskan Spektrum, Thermo Electron Corporation, Dreieich, Germany). E540 was the isosbestic point and used to normalize absorbance at 550 nm (E550/E540). […]
(§4) The plate was shaken for 10 sec in the micro-plate reader and then incubated at 37° C. under a humidified atmosphere of 5% CO2. E550 and E540 were measured after 60 and 120 min.
(§5) For calculation, the absorbance at 550 nm was normalized to absorbance at the isosbestic point at 540 nm for each individual well. […] NOX-activities were expressed as % of the activity in PMA-stimulated control cells. […]

A further experiment concerns platelets. Nature of the experiment: Inhibition of thrombin-induced (TRAP-6) platelet activation: P-Selectin expression on washed platelets, flow cytometry. Type of experiment: cell-based. Particulars: Homo sapiens, 5 μmol/l compound, 1 min pre-incubation, washed platelets stimulated 2 min with TRAP-6, read-out: % Inhibition of activation (percent reduction of TRAP-6 induced P-Selectin expression). As to the method:
Expression of P-Selectin on the surface of platelets was used as a marker of platelet activation.
All experiments were performed with washed platelets (PRP). Fresh venous blood from healthy volunteers (40 ml) was collected into 10 ml of 5-fold CCD-solution (7 mM citric acid, 100 mM trisodium citrate, 140 mM glucose, 15 mM EGTA as anti-coagulant, pH 6.5). Platelet rich plasma was prepared by centrifugation at 300 g for 20 min. The supernatant was collected and incubated for 10 min at room temperature. Platelets were pelleted from the supernatant by a second centrifugation step at 500 g for 20 min. The pellet was resuspended in 5 ml HEPES buffer (145 in M NaCl, 5 mM KCl, 1 in M MgCl2, 10 mM glucose, 10 mM HEPES, pH 7.4). Platelet concentration was adjusted to 3×10^8 platelets/ml with HEPES buffer.
Washed platelets (0.2 ml) were silenced for 1 h at room temperature in siliconised reaction tubes. After pre-incubation with compounds of example 1-11 for 1 min the washed platelets were stimulated for 2 min with thrombin receptor activating peptide (TRAP-6, BACHEM Biochemicals, Heidelberg, Germany).
As a positive control, 0.2 ml of washed platelets were pre-incubated with 10 μM of the NO-releasing compound sodium nitroprussid (SNP, Sigma, Deisenhofen).
After incubation, 20 μl of the sample was pipetted to 10 μl of FITC-labelled anti-CD62P antibody (DAKO, Glostrup, Denmark) and incubated for 15 min in the dark. After incubation the samples were diluted with 1.5 ml of phosphate buffered saline and immediately measured on a cytometer.
For background substraction, one sample was incubated with 10 μl of FITC-labelled un-specific mouse IgG1 (DAKO, Glostrup, Denmark).
For cytometry the Becton-Dickinson FACS-Calibur instrument (settings: FSC: E00; SSC: 337 V; FL-1:600 V) was used. For each measurement 20000 cells were analysed. Results were obtained as mean fluorescence intensity (MFI) calculated using the CellQuest program (Ver. 1.0; Becton-Dickinson).
Inhibition of platelet activation is given as percent reduction of TRAP-6 induced P-Selectin expression in the presence of 5 μmol/l of examples 1-11: […]
(Flow cytometry measures light scatter and fluorescence of single cells or particles in a stream.)

The subject of experiment [2] is NAD(P)H oxidases (NOX) in HL-60 cells. Nature of the experiment: Assay of NOX activity: cytochrome C reduction in PMA-stimulated differentiated HL-60 cells. The experiment is classed as cell-based, human. To be noted: 100 U/ml superoxide dismutase, used as a control in some experiments.
Method: as §1, §2, §3, §4, §5

Chain of NAD(P)H oxidases (NOX) in HL-60 cells (Homo sapiens, UniProt P04839) (P04839 whole entry): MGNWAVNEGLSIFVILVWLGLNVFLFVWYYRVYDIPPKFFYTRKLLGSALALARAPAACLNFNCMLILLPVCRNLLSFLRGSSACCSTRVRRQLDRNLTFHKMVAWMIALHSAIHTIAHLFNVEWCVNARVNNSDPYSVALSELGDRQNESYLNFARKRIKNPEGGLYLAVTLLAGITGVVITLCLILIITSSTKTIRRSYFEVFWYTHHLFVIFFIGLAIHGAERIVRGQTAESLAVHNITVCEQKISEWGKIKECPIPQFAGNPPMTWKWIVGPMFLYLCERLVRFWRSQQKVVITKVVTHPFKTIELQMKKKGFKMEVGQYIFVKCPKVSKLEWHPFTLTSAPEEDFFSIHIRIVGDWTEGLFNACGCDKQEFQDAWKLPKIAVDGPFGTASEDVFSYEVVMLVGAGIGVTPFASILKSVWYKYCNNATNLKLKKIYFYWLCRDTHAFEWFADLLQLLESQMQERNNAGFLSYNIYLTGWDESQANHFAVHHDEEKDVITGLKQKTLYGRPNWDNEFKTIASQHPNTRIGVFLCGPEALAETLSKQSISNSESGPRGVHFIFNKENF

In the case of `c1ccc2c(c1)[I+]c1ccccc1-2` [DPI, Diphenyleneiodonium chloride], the activity at 10 µM in experiment [1] was less than 10%.

The inhibition is the drop in the measured response relative to a control, in per cent. Consider `COc1ccc(Cn2nnc3c(Sc4nc5ccccc5o4)ncnc32)cc1` [Example 10, 7-(2-benzoxazolyl)thio-3-p-methoxybenzyl-1,2,3-triazolo[4,5-d]pyrimidine], for which the inhibition at 5 µM in the experiment with platelets was 60%.

As for `c1ccc(-n2nnc3c(Sc4nc5ccccc5o4)ncnc32)cc1` [Example 9, 7-(2-benzoxazolyl)thio-3-phenyl-1,2,3-triazolo[4,5-d]pyrimidine], the inhibition at 5 µM in the experiment with platelets came to 44%.

On to `c1ccc(Cn2nnc3c(Sc4nc5ccccc5o4)ncnc32)cc1` [Example 1, 3-benzyl-7-(2-benzoxazolyl)thio-1,2,3-triazolo[4,5-d]pyrimidine], for which the inhibition at 5 µM in the experiment on platelets amounted to 49%.

Take `c1ccc(Cn2nnc3c(Sc4ncc[nH]4)ncnc32)cc1` [Example 5, 3-benzyl-7-(2-imidazolyl)thio-1,2,3-triazolo[4,5-d]pyrimidine]: the inhibition at 5 µM in the experiment on platelets came out at 21%.

Regarding `c1ccc(Cn2nnc3c(Sc4ccccn4)ncnc32)cc1` [Example 2, 3-benzyl-7-(2-pyridyl)thio-1,2,3-triazolo-[4,5-d]pyrimidine], the inhibition at 5 µM in the experiment with platelets came out at 34%.

Consider “SOD: superoxide dismutase from bovine erythrocytes, EC1.15.1.1, used as a control”, for which, in experiment [2], the “Inhibition of the signal by SOD” value is reported as more than 95%.

Take `c1ccc(Cn2nnc3c(Sc4nccs4)ncnc32)cc1` [Example 4, 3-benzyl-7-(2-thiazolyl)thio-1,2,3-triazolo[4,5-d]pyrimidine]: in the experiment on platelets, the inhibition at 5 µM was found to be 45%.

Consider `c1ccc(Cn2nnc3c(Sc4ncco4)ncnc32)cc1` [Example 3, 3-benzyl-7-(2-oxazolyl)thio-1,2,3-triazolo[4,5-d]pyrimidine], for which the inhibition at 5 µM in the experiment on platelets amounted to 55%.

As to `Cc1nc(Sc2nc3ccccc3o2)c2nnn(Cc3ccccc3)c2n1` [Example 6, 3-benzyl-7-(2-benzoxazolyl)thio-5-methyl-1,2,3-triazolo[4,5-d]pyrimidine], the inhibition at 5 µM with platelets amounted to 39%.

With `Cn1nnc2c(Sc3nc4ccccc4o3)ncnc21` [Example 8, 7-(2-benzoxazolyl)thio-3-methyl-1,2,3-triazolo[4,5-d]pyrimidine], the inhibition at 5 µM with platelets is 38%.

Turning to `Clc1ccccc1Cn1nnc2c(Sc3nc4ccccc4o3)ncnc21` [Example 11, 7-(2-benzoxazolyl)thio-3-o-chlorobenzyl-1,2,3-triazolo[4,5-d]pyrimidine], the inhibition at 5 µM in the experiment with platelets was 80%.
